From EP0319316A2, “Griseolic acid monoesters, their preparation and use” (SANKYO COMPANY LIMITED, priority 1987, dated 1989)
Counter-ions that a name gives are not always drawn. Like-named read-outs stand apart in the source and are kept apart here.

Tests used:
normal rabbits = test: Intraocular pressure reduction in normal rabbits (Experiment 1); format: in vivo, male New Zealand white rabbits
Procedure: In the following Experiments 1 to 6, the test animals used were male New Zealand white rabbits, each weighing about 2.5 kg, raised in a room where the room temperature, relative humidity and lighting time were controlled to be 23° C, 60% and from 07:00 to 19:00, respectively. The animals were chosen from those where no abnormalities could be detected in their eyes by observation with the naked eye. They were given water freely but feed was restricted. The reduction in intraocular pressure (IOP) caused by the compounds of the present invention was investigated using groups of three male New Zealand white rabbits for each test. The compounds of the present invention were employed as solutions dissolved in a 50 mM phosphate buffer (pH 7.0) containing 0.4% w/v of sodium chloride which were adjusted to concentrations of about 1% w/v of the compound under test. Both eyes of each rabbit were anesthetized with eye drops containing an ophthalmic anesthetic (0.4% Benoxil, available from Santen Pharmaceutical Co., Ltd.), and then the IOP in each eye was measured by means of a PTG (Pneumatonograph: Alcon). The test substance was then instilled into either the left eye or the right eye (the eye to be tested) in an amount of 50 µℓ (in the case of 0.5% timolol, a known compound used for comparison, the amount was 30 µℓ). Sixty minutes after this instillation, the same amount of the same test compound was instilled into the same eye of each test animal. On the other hand, no instillation was effected into the other eye of each animal, which was used as a control eye. The IOP values of both eyes were measured 30,60,90,120,150 and 180 minutes, after the initial instillation of the test substance. The IOP reduction at each time of measurement caused by each test substance was calculated from the following equation: Intraocular pressure reduction (Ap, mmHg) = (Ic - It) - (Ic° - It°), • in which: • Ic the IOP of the control eye; • It is the IOP of the test eye; • Ic° the IOP of the control eye immediately before the initial instillation; and • It° is the IOP of the test eye immediately before the initial instillation. The average value of the IOP reduction at each time of measurement was calculated to obtain the intraocular reduction (Ap, mmHg) of the test substance. The results are reported as a ratio of the Δp of the test substance to that of the known substance, 0.5% timolol, which is, therefore, taken as 1.

Balb/3T3 cells [1] = settings: 10 min, 500 µM
Procedure: (§1) Balb/3T3 cells were incubated in Dulbecco's modified Eagle medium (glucose-rich) containing 100/o v/v bovine fetal serum. […] The sample was then dissolved in a buffer solution prepared by the further addition of 4 mM of calcium chloride to the buffer solution mentioned above. If the sample was difficult to dissolve in water, it was dissolved first in dimethyl sulphoxide (DMSO) and then the resulting solution was diluted with the buffer (the final concentration of DMSO was determined to be 0.1%). The cell suspension was preincubated at 30° C for 5 minutes, and 100 µℓ of this suspension were added to 100 µℓ of the sample solution to initiate enzymatic reaction. After incubation at 30° C for 10 minutes, 20 µℓ of 1 N aqueous hydrochloric acid was added to stop the reaction. The reaction mixture was then centrifuged at 3000 rpm for 3 minutes to obtain 100 µℓ of the supernatant. Cyclic 3',5'-adenosine monophosphate (cAMP) contained in the supernatant was quantitatively analyzed by radioimmunoassay using a Yamasa cAMP radioimmunoassay kit YSI-7701. The CAMP accumulating effect is reported as the ratio between the value measured using a test compound and that measured in the control.

Balb/3T3 cells [2] = test: cAMP accumulation in Balb/3T3 cells, radioimmunoassay (Experiment 5)
Procedure: as §1

IOP = IOP lowering effect, area between IOP-time curves (Experiment 6); format: in vivo, male New Zealand white rabbits; settings: 25 µℓ three times every 2 minutes, ratio of areas between IOP lines
Procedure: In the following Experiments 1 to 6, the test animals used were male New Zealand white rabbits, each weighing about 2.5 kg, raised in a room where the room temperature, relative humidity and lighting time were controlled to be 23° C, 60% and from 07:00 to 19:00, respectively. The animals were chosen from those where no abnormalities could be detected in their eyes by observation with the naked eye. They were given water freely but feed was restricted.
The compound under test was dissolved in 100 mM of a sodium phosphate buffer solution (pH 7.2) containing a small amount of a 0.1 N aqueous solution of sodium hydroxide. In the case of timolol maleate, a 0.5% w/v eye lotion (Timoptol 0.5%, Santen Pharm. Co.) was used as such.
The cornea of the rabbit was anesthetized by the topical application of one or two drops of 0.4% oxybuprocaine hydrochloride. The IOP was measured two or three times for each eye and the mean value was calculated and is reported as the IOP value. After the IOP of the rabbit eye had been measured, 25 µℓ of the sample solution was applied to center of the cornea of one eye three times every 2 minutes. The other eye was treated with the vehicle alone in a similar way. The IOP of both eyes was then measured.
IOP values obtained from both eyes were plotted against times after application and the area enclosed by the two IOP lines (with and without the active compound) was calculated. The IOP lowering effect of each sample was expressed as a ratio of the area described above to that of 0.5^0/o timolol.

[3] = system: Normal intraocular pressure; test: Normal intraocular pressure lowering effect (Experiment 3); format: in vivo, male New Zealand white rabbits; settings: 0.5% timolol maleate applied to the eye
Procedure: In the following Experiments 1 to 6, the test animals used were male New Zealand white rabbits, each weighing about 2.5 kg, raised in a room where the room temperature, relative humidity and lighting time were controlled to be 23° C, 60% and from 07:00 to 19:00, respectively. The animals were chosen from those where no abnormalities could be detected in their eyes by observation with the naked eye. They were given water freely but feed was restricted. The compound under test was dissolved in 100 mM of a sodium phosphate buffer solution (pH 7.2) containing a small amount of a 0.1 N aqueous solution of sodium hydroxide. In the case of timolol maleate, a 0.5% w/v eye lotion (Timoptol 0.5%, Santen Pharm. Co.) was used as such. The corneal surface was anesthetized by the application of oxybuprocain hydrochloride (Benoxil 0.4% solution, Santen Pharm. Co.), and the IOP was measured by means of an Alcon Applanation Pneumatograph (Japan Alcon) in rabbits. The measurements were carried out 2 or 3 times for each eye, and the mean value was calculated and is regarded as the value of IOP. After determination of the IOP, 25 µℓ of a sample solution was applied to one eye (test eye) three times every two minutes, and the same volume of the vehicle alone was applied to the other eye (control eye). The values of IOP of both eyes were measured with the passage of time. In this Experiment, the test compound was the compound of Example 19(b).

[4] = system: water load-induced elevation of intraocular pressure; test: Effect on water load-induced elevation of intraocular pressure, water load test (Experiment 2); format: in vivo, male New Zealand white rabbits; settings: 0.5% timolol maleate; water load test
Procedure: In the following Experiments 1 to 6, the test animals used were male New Zealand white rabbits, each weighing about 2.5 kg, raised in a room where the room temperature, relative humidity and lighting time were controlled to be 23° C, 60% and from 07:00 to 19:00, respectively. The animals were chosen from those where no abnormalities could be detected in their eyes by observation with the naked eye. They were given water freely but feed was restricted. The compound under test was dissolved in 100 mM of a sodium phosphate buffer solution (pH 7.2) containing a small amount of a 0.1 N aqueous solution of sodium hydroxide. In the case of timolol maleate, a 0.5% w/v eye lotion (Timoptol 0.5%, Santen Pharm. Co.) was used as such. Each rabbit was anesthetized with urethane (1.0 g/kg, i.v.), and the IOP values of both eyes were measured. Immediately thereafter, 50 µℓ of the sample solution was applied to one eye (test eye). To the other eye (control eye), 50 µℓ of the vehicle alone was applied. Ninety minutes after this application, the values of IOP were measured and then the water load test was performed as follows. Sixty ml/kg of tap water was given compulsorily per os to the anesthetized rabbit, and then the values of IOP for both eyes were measured with the passage of time. In this Experiment, the test compound was the compound of Example 19(b), i.e. 9'-(4-acetoxybenzyl) griseolate.

[5] = drug concentration 1.0 %, 50 µℓ instilled at 0 and 60 min, average over 30-180 min, ratio to 0.5% timolol taken as 1

8'-Pivaloyloxyrnethyl griseolate [Example 10]
Intraocular pressure reduction relative to 0.5% timolol (normal rabbits; [5]): 1.08

9'-(1-Pivaloyloxyethyl) griseolate [Example 5]
Intraocular pressure reduction relative to 0.5% timolol (normal rabbits; [5]): 0.92

9'-(3,4-Diacetoxybenzyl) griseolate [Example 22(b)]
cAMP accumulating effect (Balb/3T3 cells [1]): 8.3

9'-(4-Acetoxy-3-methoxybenzyl) 7'-deoxygriseolate [Example 37]
cAMP accumulating effect (Balb/3T3 cells [2]; Concentration 500 µM, ratio of value with test compound to control, 30° C, 10 minutes): 16

9'-(4-Acetoxy-3-methoxybenzyl) griseolate [Example 26(b)]
IOP Lowering Effect (Ratio to 0.5% timolol) (IOP; Concentration 0.5 %): 3.29

9'-Pivaloyloxymethyl griseolate [Example 1]
Intraocular pressure reduction relative to 0.5% timolol (normal rabbits; [5]): 2.38

9'-[1-(Isopropoxycarbonyloxy)ethyl] griseolate [Example 2]
Intraocular pressure reduction relative to 0.5% timolol (normal rabbits; [5]): 1.24

Cc1oc(=O)oc1COC(=O)C12C=C(C(O)C(=O)O)OC1C(O)C(n1cnc3c(N)ncnc31)O2 (centres unmarked) [Example 3, 9'-(5-Methyl-2-oxo-1,3-dioxolen-4-yl)methyl griseolate]
Intraocular pressure reduction relative to 0.5% timolol (normal rabbits; [5]): 0.90

CCCC(=O)OC(C)OC(=O)C12C=C(C(O)C(=O)O)OC1C(O)C(n1cnc3c(N)ncnc31)O2 (centres unmarked) [Example 7, 9'-(1-Butyryloxyethyl) griseolate]
Intraocular pressure reduction relative to 0.5% timolol (normal rabbits; [5]): 0.79

CC(C)(C)C(=O)Oc1ccc(COC(=O)C23C=C(C(O)C(=O)O)OC2C(O)C(n2cnc4c(N)ncnc42)O3)cc1 (centres unmarked) [Example 21(b), 9'-(4-Pivaloyloxybenzyl) griseolate]
cAMP accumulating effect (Balb/3T3 cells [1]): 8.5

CC(C)C(=O)Oc1ccc(COC(=O)C2=CC3(C(O)C(=O)O)OC(n4cnc5c(N)ncnc54)C(O)C3O2)cc1 (centres unmarked) [Example 23(b), 9'-(4-lsobutyryloxybenzyl) griseolate]
IOP Lowering Effect (Ratio to 0.5% timolol) (IOP; Concentration 0.03 %): 1.62

CC(=O)Oc1ccccc1C=CCOC(=O)C12C=C(C(O)C(=O)O)OC1C(O)C(n1cnc3c(N)ncnc31)O2 (centres unmarked) [Example 31(b), 9'-(2-Acetoxycinnamyl) griseolate]
IOP Lowering Effect (Ratio to 0.5% timolol) (IOP; Concentration 0.5 %): 1.88

CC(=O)Oc1ccc(COC(=O)C(O)C2=CC3(C(=O)O)OC(n4cnc5c(N)ncnc54)C(O)C3O2)cc1 (centres unmarked) [Example 34, 8'-(4-Acetoxybenzyl) griseolate]
cAMP accumulating effect (Balb/3T3 cells [1]): 16

COc1cc(COC(=O)C(O)C2=CC3(C(=O)O)OC(n4cnc5c(N)ncnc54)C(O)C3O2)ccc1OC(C)=O (centres unmarked) [Example 35, 8'-(4-Acetoxy-3-methoxybenzyl) griseolate]
cAMP accumulating effect (Balb/3T3 cells [1]): 18

CC(=O)Oc1ccc(COC(=O)C23C=C(CC(=O)O)OC2C(O)C(n2cnc4c(N)ncnc42)O3)cc1 (centres unmarked) [Example 36, 9'-(4-Acetoxybenzyl) 7'-deoxygriseolate]
cAMP accumulating effect (Balb/3T3 cells [1]): 16

Nc1ncnc2c1ncn2[C@@H]1OC2=C[C@@](C(=O)O)(C(O)C(=O)O)O[C@H]2[C@H]1O (some centres unmarked) [Griseolic acid]
Intraocular pressure reduction relative to 0.5% timolol (normal rabbits; [5]): -0.12
fold induction at 500 µM (Balb/3T3 cells [2]; Mus musculus, BALB/3T3, 10 min, read-out: cAMP accumulating effect): 3.5

CC(C)(C)NC[C@H](O)COc1nsnc1N1CCOCC1 [timolol maleate, reference compound]
significant lowering of IOP [3]: only observed 2 hours after application
difference of IOP between the control eye and the test eye [4]: no significant difference

CC(C)(C)NC[C@H](O)COc1nsnc1N1CCOCC1 [timolol, reference compound]
Intraocular pressure reduction relative to 0.5% timolol (normal rabbits; drug concentration 0.5 %, 30 µℓ instilled at 0 and 60 min, reference, taken as 1): 1.0
